The test has as its system Phosphorylation of STAT6 in human PBMC (CD19+ B cells). Put plainly: Phosphorylated STAT6 (pSTAT6) flow cytometry assay in human PBMC, IL-4 stimulated. The following applies: compound 1 hour, 1 ng/ml IL-4 for 15 minutes, read-out: STAT6 IL4 pSTAT6 assay in PBMC: Average IC50. It is filed as cell-based. On the procedure:
Example 2. Phosphorylated STAT6 (pSTAT6) Flow Cytometry Assay in Human PBMC
Phosphorylation of STAT6 in human PBMC was quantitatively measured using flow cytometry technology. Human PBMC were seeded in 96-well plates with a density of 0.3 to 0.5 million cells per well in 100 μl fresh media. Compounds were then added to the assay plates with a final top concentration of up to 30 μM in a 1:3 dilution series with total of 9 doses. The assay plates were incubated for 1 hour at 37° C. under 5% CO2. The cells were then stimulated with 1 ng/ml of IL-4 (R&D Systems, Cat #6507-IL) for 15 minutes, followed by fixation for 30 minutes at 4° C. Cells were spun down at 350 g for 5 minutes. The supernatant was removed and cells were washed once with FACS buffer. Cells were permeabilized with 90% MeOH/H2O for 30 minutes at 4° C., followed by one wash with FACS buffer. Non-specific binding were blocked with human Fc for 1 hour at 4 C, followed by one wash with FACS buffer. AF488 conjugated pSTAT6 antibody (BD Biosciences, Cat #612600, 1:100 dilution) and PE conjugated CD19 antibody (BD Biosciences, Cat #341103, 1:50 dilution) diluted in 100 μl FACS buffer was added to each well with overnight incubation at 4° C. Cells were then washed once with FACS buffer and resuspended in 200 μl of FACS buffer for flow cytometry to quantify pSTAT6 in CD19+ B cells. The data was analyzed by GraphPad Prism and the dose dependent pSTAT6 inhibition was fit using the four-parameter inhibitor vs. response nonlinear regression.
For orientation: In flow cytometry, cells or beads pass a laser one at a time.

The values below come from patent publication US20250214977A1, “STAT6 INHIBITORS AND USES THEREOF” (Kymera Therapeutics, Inc., priority 2024, published 2025).

Each structure is given as a SMILES string.

As a reminder, the IC50 is the point on the concentration scale where inhibition reaches its midpoint. Take `CN(C)C(=O)c1cc2ccc(C3=CCCN(C(=O)c4ccccc4CSc4ccccc4)C3)cc2[nH]1` [Example I-92]: the IC50 was 10 to 100 µM.

Turning to `CN(C)C(=O)c1cn2ccc(C3=CCCN(C(=O)CCn4ccnn4)C3)cc2n1` [Example I-289], the IC50 is > 100 µM.

On to `CN(C)C(=O)c1cc2cc(C3=CCCN(C(=O)CCc4cncnc4)C3)ccc2o1` [Example I-272], for which the IC50 is > 100 µM.

Consider `CN(C)C(=O)c1cc2cc(C3=CCCN(C(=O)Cc4ccncc4)C3)ccc2o1` [Example I-279], for which the IC50 is > 100 µM.

With `CC(=O)N1Cc2ccccc2CC1C(=O)N1CCC=C(c2ccc3oc(C(=O)N(C)C)cc3c2)C1` (stereo not shown) [Example I-232], the IC50 is > 100 µM.

On to `CN(C)C(=O)c1nc2ccc(C3=CCCN(C(=O)CCn4ccnn4)C3)cc2o1` [Example I-226], for which the IC50 was > 100 µM.

Regarding `CN(C)C(=O)c1cc2ccc(C3=CCCN(C(=O)c4c(F)cccc4C(=O)O)C3)cc2[nH]1` [Example I-61], the IC50 is > 100 µM.

With `CC(=O)N1CCc2ccc(CC(=O)N3CCC=C(c4ccc5oc(C(=O)N(C)C)cc5c4)C3)cc2C1` [Example I-193], the IC50 is > 100 µM.

`Cc1cnnn1CCC(=O)N1CCC=C(c2ccc3cc(C(=O)N(C)C)[nH]c3c2)C1` [Example I-12]: the IC50 was in the range of 10 to 100 µM.

Consider `CN(C)C(=O)c1cc2ccc(C3=CCCN(C(=O)c4ccc(N5CCOCC5)c(F)c4)C3)cc2[nH]1` [Example I-158], for which the IC50 was > 100 µM.

In the case of `CC(=O)N1CCN(c2cc(C3=CCCN(C(=O)CCn4ccnn4)C3)cc3cc(C(=O)N(C)C)oc23)CC1` [Example I-207], the IC50 was > 100 µM.

On to `CN(C)C(=O)c1cc2ccc(C3=CCCN(C(=O)C4CCCS4(=O)=O)C3)cc2[nH]1` (stereo not shown) [Example I-40], for which the IC50 fell in the range of 10 to 100 µM.

Take `CN(C)C(=O)c1cc2cc(C3=CCCN(C(=O)Cc4ccccc4)C3)ccc2o1` [Example I-283]: the IC50 was > 100 µM.

Regarding `CN(C)C(=O)c1cc2ccc(C3=CCCN(C(=O)C4CN(Cc5ccccc5)CCO4)C3)cc2[nH]1` (stereo not shown) [Example I-100], the IC50 fell in the range of 10 to 100 µM.

In the case of `CN(C)C(=O)c1cc2cc(C3=CCCN(C(=O)Cc4nc5ccccc5o4)C3)ccc2o1` [Example I-292], the IC50 was > 100 µM.

As for `CC(=O)N1CCC(c2cc(C3=CCCN(C(=O)CCn4ccnn4)C3)cc3cc(C(=O)N(C)C)oc23)CC1` [Example I-190], the IC50 is 10 to 100 µM.

On to `CN(C)C(=O)c1cc2ccc(C3=CCCN(C(=O)c4cc(C#N)ccc4Br)C3)cc2[nH]1` [Example I-144], for which the IC50 was > 100 µM.

Consider `CN(C)C(=O)c1cc2cc(C3=CCCN(C(=O)CCc4cccs4)C3)ccc2o1` [Example I-299], for which the IC50 was > 100 µM.

For `CC(=O)Nc1ccc(CC(=O)N2CCC=C(c3ccc4oc(C(=O)N(C)C)cc4c3)C2)cc1` [Example I-287], the IC50 is > 100 µM.

For the molecule `CN(C)C(=O)c1cc2cc(C3=CCCN(C(=O)Cc4ncccn4)C3)ccc2o1` [Example I-249], the IC50 was > 100 µM.

With `CN(C)C(=O)c1cc2ccc(C3=CCCN(C(=O)CCn4ncc5cc(Cl)ncc54)C3)cc2[nH]1` [Example I-80], the IC50 was > 100 µM.

On to `CN(C)C(=O)c1cc2cc(C3=CCCN(C(=O)C4c5ccccc5CCN4C)C3)ccc2o1` (stereo not shown) [Example I-208], for which the IC50 was > 100 µM.

Take `CN(C)C(=O)c1cc2cc(C3=CCCN(C(=O)CCc4cnccn4)C3)ccc2o1` [Example I-216]: the IC50 is > 100 µM.

As for `CN(C)C(=O)c1cc2ccc(C3=CCCN(C(=O)CCc4ccno4)C3)cc2[nH]1` [Example I-19], the IC50 is > 100 µM.

Consider `CN(C)C(=O)c1cc2ccc(C3=CCCN(C(=O)CCc4nn[nH]n4)C3)cc2[nH]1` [Example I-15], for which the IC50 lay in the range of 10 to 100 µM.

As to `CN(C)C(=O)c1nc2cc(C3=CCCN(C(=O)CCn4ccnn4)C3)ccc2o1` [Example I-214], the IC50 is > 100 µM.

Regarding `CN(C)C(=O)c1cc2ccc(C3=CCCN(C(=O)C4CCN(S(C)(=O)=O)CC4)C3)cc2[nH]1` [Example I-140], the concentration for half-maximal inhibition (IC50) was > 100 µM.

Turning to `CN(C)C(=O)c1cc2cc(C3=CCCN(C(=O)Cn4cncn4)C3)ccc2o1` [Example I-315], the IC50 is > 100 µM.

`CN(C)C(=O)c1cc2cc(C3=CCCN(C(=O)CCn4ccnn4)C3)ccc2s1` [Example I-243]: the IC50 is > 100 µM.

On to `CN(C)C(=O)c1cc2ccc(C3=CCCN(C(=O)c4ccnnc4O)C3)cc2[nH]1` [Example I-146], for which the IC50 is > 100 µM.

For the molecule `CN(C)C(=O)c1cc2ccc(C3=CCCN(C(=O)C4CC(O)C4)C3)cc2[nH]1` (stereo not shown) [Example I-28], the IC50 fell in the range of 10 to 100 µM.

Take `O=C(CCn1ccnn1)N1CCC=C(c2ccc3cc(C(=O)N4CCCCC4)[nH]c3c2)C1` [Example I-123]: the IC50 is 10 to 100 µM.

In the case of `COC(=O)c1ccc(CCC(=O)N2CCC=C(c3ccc4cc(C(=O)N(C)C)[nH]c4c3)C2)[nH]1` [Example I-68], the IC50 lay within 10 to 100 µM.

For the molecule `C[C@@H]1CCCCN1C(=O)c1cc2ccc(C3=CCCN(C(=O)CCn4ccnn4)C3)cc2[nH]1` (single isomer, unassigned) [Example I-130], the IC50 is > 100 µM.

As to `CNC1(C(=O)N2CCC=C(c3ccc4oc(C(=O)N(C)C)cc4c3)C2)CCc2ccccc2C1` (stereo not shown) [Example I-5], the IC50 is 10 to 100 µM.

As to `CN(C)C(=O)c1cc2cc(C3=CCCN(C(=O)CCn4ccnn4)C3)cc(N3CCNCC3)c2o1` [Example I-191], the IC50 was > 100 µM.

Consider `CN(C)C(=O)c1cc2cc(C3=CCCN(C(=O)CCc4cccnc4)C3)ccc2o1` [Example I-301], for which the IC50 was > 100 µM.

As for `CNS(=O)(=O)c1cccc(C(=O)N2CCC=C(c3ccc4cc(C(=O)N(C)C)[nH]c4c3)C2)c1` [Example I-70], the IC50 was > 100 µM.

For `CC(=O)N1CCc2ccccc2[C@@H]1C(=O)N1CCC=C(c2ccc3oc(C(=O)N(C)C)cc3c2)C1` (single isomer, unassigned) [Example I-177], the IC50 was > 100 µM.

`CN(C)C(=O)c1cc2ccc(C3=CCCN(C(=O)CCc4ccc(C#N)cc4)C3)cc2[nH]1` [Example I-162]: the IC50 is > 100 µM.

On to `CN(C)C(=O)c1cc2cc(C3=CCCN(C(=O)Cc4ccc5ncnn5c4)C3)ccc2o1` [Example I-286], for which the IC50 was > 100 µM.

As to `Cc1ccc(C(=O)N2CCC=C(c3ccc4cc(C(=O)N(C)C)[nH]c4c3)C2)c(=O)n1-c1ccc(F)cc1` [Example I-111], the IC50 is > 100 µM.

Turning to `CN(C)C(=O)c1nc2cc(C3=CCCN(C(=O)CCn4ccnn4)C3)ccc2s1` [Example I-192], the IC50 is > 100 µM.

Turning to `COC(=O)C1CCC(c2ccc3oc(C(=O)N(C)C)cc3c2)CN1C(=O)CCn1ccnn1` (stereo not shown) [Example I-149], the IC50 was > 100 µM.

As to `CN(C)C(=O)c1cc2ccc(C3=CCCN(C(=O)CN4C(=O)COc5ccccc54)C3)cc2[nH]1` [Example I-79], the IC50 lay in the range of 10 to 100 µM.

With `CN(C)C(=O)c1cc2ccc(C3=CCCN(C(=O)c4ccc5c(c4)OCC(=O)N5)C3)cc2[nH]1` [Example I-132], the IC50 was > 100 µM.

Regarding `CN(C)C(=O)c1cc2cc(C3=CCCN(C(=O)CCc4nc5ccccc5s4)C3)ccc2o1` [Example I-237], the IC50 is > 100 µM.

In the case of `CN(C)C(=O)c1cc2cc(C3=CCCN(C(=O)Cc4cnc5ccccn45)C3)ccc2o1` [Example I-276], the IC50 was > 100 µM.

As to `CNc1ccc(-c2cc(C3=CCCN(C(=O)CCn4ccnn4)C3)cc3[nH]c(C(=O)N(C)C)cc23)c(C)c1` [Example I-114], the half-inhibitory concentration (IC50) lay within 0.1 to 1 µM.
